Experimental data reported in US20230135729A1, “COMPOUND WITH ANTI-SPORE ACTIVITY AND PHARMACEUTICAL COMPOSITION THEREOF” (priority 2020, published 2023).
Converted amounts (≈) assume the structure as drawn. Where two headings read alike, the source gives them in different places.

Tests used:
Type in all cases: cell-based
[1] = test system: spores of ATCC 630 strain; test: Inhibition of germination of C. difficile spores (MIC), strain ATCC 630; conditions: Clostridioides difficile, ATCC630, 1 h, read-out: MIC (minimum concentration that completely inhibits spore germination)
Procedure, shortened: (§1)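 Spores heat-activated for 30 min at 65° C and washed, then preincubated with compound (10 mM DMSO stock) in BHIS at 37° C. Germination was triggered with sodium taurocholate, and OD580 was read each minute for 60 min. Inhibition = 100% − germination rate, from final vs initial OD relative to germinant-only controls.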

[2] = test system: spores of ATCC 43255 strain; test: Inhibition of germination of C. difficile spores (MIC), strain ATCC 43255; conditions: Clostridioides difficile, ATCC43255, 1 h, read-out: MIC (minimum concentration that completely inhibits spore germination)
Procedure, shortened: as §1

[3] = test system: spores of ATCC BBA1870 strain; test: Inhibition of germination of C. difficile spores (MIC), strain ATCC BBA1870; conditions: Clostridioides difficile, ATCCBBA1870STRAIN, 1 h, read-out: MIC (minimum concentration that completely inhibits spore germination)
Procedure, shortened: as §1

[4] = strain 630, sodium taurocholate as germinant, BHIS medium, 37° C., OD580 for 60 min
[5] = strain 43255, sodium taurocholate as germinant, BHIS medium, 37° C., OD580 for 60 min
[6] = strain 1870, sodium taurocholate as germinant, BHIS medium, 37° C., OD580 for 60 min

SMILES	MIC [1, 4]	MIC [2, 5]	MIC [3, 6]	MIC [1]	MIC [2]	MIC [3]
CC[C@@H](NC(=O)C[C@@H](C)[C@H]1CC[C@H]2[C@@H]3[C@H](O)C[C@@H]4CC(=O)CC[C@]4(C)[C@H]3C[C@H](O)[C@]12C)c1ccc(Br)s1 [Compound I-165]	32 µM (≈ 19 µg/mL)	64 µM (≈ 38.1 µg/mL)	64 µM (≈ 38.1 µg/mL)	–	–	–
CCC(NC(=O)C[C@@H](C)[C@H]1CC[C@H]2[C@@H]3[C@H](O)[C@H](O)[C@@H]4C[C@H](O)CC[C@]4(C)[C@H]3CC[C@]12C)c1cccs1 (stereo partly drawn) [Compound I-116]	16 µM (≈ 8.28 µg/mL)	16 µM (≈ 8.28 µg/mL)	16 µM (≈ 8.28 µg/mL)	–	–	–
CC(C)[C@@H](NC(=O)C[C@@H](C)[C@H]1CC[C@H]2[C@@H]3CC[C@@H]4C[C@H](O)CC[C@]4(C)[C@H]3CC[C@]12C)c1ccc(Br)s1 [Compound I-148]	16 µM (≈ 9.26 µg/mL)	16 µM (≈ 9.26 µg/mL)	16 µM (≈ 9.26 µg/mL)	–	–	–
CC[C@@H](NC(=O)C[C@@H](C)[C@H]1CC[C@H]2[C@@H]3[C@H](OC(C)=O)CC4=CC(=O)C=C[C@]4(C)[C@H]3CC[C@]12C)c1ccc(Cl)s1 [I-161 -1]	0.25 µM (≈ 0.143 µg/mL)	0.5 µM (≈ 0.286 µg/mL)	0.5 µM (≈ 0.286 µg/mL)	–	–	–
CC(C)C(NC(=O)C[C@@H](C)[C@H]1CC[C@H]2[C@@H]3[C@H](OS(=O)(=O)O)C[C@@H]4CC(=O)CC[C@]4(C)[C@H]3CC[C@]12C)c1ccc(Cl)s1 (stereo partly drawn) [Compound I-110]	1 µM (≈ 0.628 µg/mL)	0.5 µM (≈ 0.314 µg/mL)	1 µM (≈ 0.628 µg/mL)	–	–	–
CC(C)[C@@H](NC(=O)C[C@@H](C)[C@H]1CC[C@H]2[C@@H]3[C@H](O)C[C@@H]4CC(=O)CC[C@]4(C)[C@H]3C[C@H](O)[C@]12C)c1ccc(Br)s1 [Compound I-166]	32 µM (≈ 19.5 µg/mL)	32 µM (≈ 19.5 µg/mL)	64 µM (≈ 39 µg/mL)	–	–	–
C[C@H](CC(=O)NC(c1cccs1)c1cccs1)[C@H]1CC[C@H]2[C@@H]3C(=O)C[C@@H]4CC(=O)CC[C@]4(C)[C@H]3CC[C@]12C [Compound I-56]	16 µM (≈ 8.83 µg/mL)	16 µM (≈ 8.83 µg/mL)	16 µM (≈ 8.83 µg/mL)	–	–	–
C[C@H](CC(=O)NC(c1cccs1)C1CCC1)[C@H]1CC[C@H]2[C@@H]3C(=O)C[C@@H]4CC(=O)CC[C@]4(C)[C@H]3CC[C@]12C (stereo partly drawn) [Compound I-57]	16 µM (≈ 8.38 µg/mL)	32 µM (≈ 16.8 µg/mL)	32 µM (≈ 16.8 µg/mL)	–	–	–
CC(C)[C@@H](NC(=O)C[C@@H](C)[C@H]1CC[C@H]2[C@@H]3C(=O)C[C@@H]4CC(=O)CC[C@]4(C)[C@H]3CC[C@]12C)c1ccc(N(C)C)s1 [Compound I-204]	–	–	–	32 µM (≈ 17.8 µg/mL)	32 µM (≈ 17.8 µg/mL)	32 µM (≈ 17.8 µg/mL)
CC[C@@H](NC(=O)C[C@@H](C)[C@H]1CC[C@H]2[C@@H]3C(=O)C[C@@H]4CC(=O)CC[C@]4(C)[C@H]3CC[C@]12C)c1ccc(C(=O)CCCCCCC(=O)O)s1 [Compound I-205]	128 µM (≈ 83.7 µg/mL)	128 µM (≈ 83.7 µg/mL)	128 µM (≈ 83.7 µg/mL)	–	–	–
C[C@H](CC(=O)NCc1cccs1)[C@H]1CC[C@H]2[C@@H]3[C@H](O)C[C@@H]4C[C@H](O)CC[C@]4(C)[C@H]3CC[C@]12C [Compound I-3]	4 µM (≈ 1.89 µg/mL)	8 µM (≈ 3.79 µg/mL)	8 µM (≈ 3.79 µg/mL)	–	–	–
CC(=O)O[C@@H]1CC2=CC(=O)C=C[C@]2(C)[C@H]2CC[C@]3(C)[C@@H]([C@H](C)CC(=O)N[C@@H](c4ccc(Cl)s4)C(C)C)CC[C@H]3[C@H]12 [I-162 -1]	0.5 µM (≈ 0.293 µg/mL)	0.5 µM (≈ 0.293 µg/mL)	0.25 µM (≈ 0.147 µg/mL)	–	–	–
CC(C)[C@@H](NC(=O)C[C@@H](C)[C@H]1CC[C@H]2[C@@H]3[C@H](O)[C@H](O)[C@@H]4C[C@H](O)CC[C@]4(C)[C@H]3CC[C@]12C)c1ccc(Cl)s1 [Compound I-120]	16 µM (≈ 9.06 µg/mL)	16 µM (≈ 9.06 µg/mL)	16 µM (≈ 9.06 µg/mL)	–	–	–
CC[C@@H](NC(=O)C[C@@H](C)[C@H]1CC[C@H]2[C@@H]3[C@H](O)[C@H](O)[C@@H]4CC(=O)CC[C@]4(C)[C@H]3CC[C@]12C)c1cccs1 [Compound I-122]	128 µM (≈ 66 µg/mL)	128 µM (≈ 66 µg/mL)	128 µM (≈ 66 µg/mL)	–	–	–
CC(C)[C@@H](NC(=O)C[C@@H](C)[C@H]1CC[C@H]2[C@@H]3C(=O)C[C@@H]4CC(=O)CC[C@]4(C)[C@H]3CC[C@]12C)c1ccc(Br)s1 [Compound I-80]	0.125 µM (≈ 0.0738 µg/mL)	0.125 µM (≈ 0.0738 µg/mL)	0.125 µM (≈ 0.0738 µg/mL)	–	–	–
CCC(NC(=O)C[C@@H](C)[C@H]1CC[C@H]2[C@@H]3[C@H](OS(=O)(=O)O)C[C@@H]4CC(=O)CC[C@]4(C)[C@H]3CC[C@]12C)c1ccc(Br)s1 (stereo partly drawn) [Compound I-107]	1 µM (≈ 0.659 µg/mL)	1 µM (≈ 0.659 µg/mL)	1 µM (≈ 0.659 µg/mL)	–	–	–
